{"source": "the NIST ThermoML archive (doi:10.1021/je900221m)", "test": "cn = amount concentration of the nth substance listed, in mol/dm3", "conditions": "101 kPa, Liquid, Taylor dispersion method"}
{"smiles": "NNC(=O)c1ccncc1", "note": "[isonicotinic acid hydrazide] + O", "values": [{"measurement": "binary diffusion coefficient", "setting": "298.15 K, c1 = 0", "value": "8.26e-10", "unit": "m2/s"}, {"measurement": "binary diffusion coefficient", "setting": "298.15 K, c1 = 0.005", "value": "8.25e-10", "unit": "m2/s"}, {"measurement": "binary diffusion coefficient", "setting": "298.15 K, c1 = 0.01", "value": "8.23e-10", "unit": "m2/s"}, {"measurement": "binary diffusion coefficient", "setting": "298.15 K, c1 = 0.02", "value": "8.21e-10", "unit": "m2/s"}, {"measurement": "binary diffusion coefficient", "setting": "298.15 K, c1 = 0.05", "value": "8.14e-10", "unit": "m2/s"}, {"measurement": "binary diffusion coefficient", "setting": "298.15 K, c1 = 0.1", "value": "8.09e-10", "unit": "m2/s"}, {"measurement": "binary diffusion coefficient", "setting": "310.15 K, c1 = 0", "value": "1.19e-09", "unit": "m2/s"}, {"measurement": "binary diffusion coefficient", "setting": "310.15 K, c1 = 0.005", "value": "1.18e-09", "unit": "m2/s"}, {"measurement": "binary diffusion coefficient", "setting": "310.15 K, c1 = 0.01", "value": "1.15e-09", "unit": "m2/s"}, {"measurement": "binary diffusion coefficient", "setting": "310.15 K, c1 = 0.02", "value": "1.11e-09", "unit": "m2/s"}, {"measurement": "binary diffusion coefficient", "setting": "310.15 K, c1 = 0.05", "value": "1.09e-09", "unit": "m2/s"}, {"measurement": "binary diffusion coefficient", "setting": "310.15 K, c1 = 0.1", "value": "1.04e-09", "unit": "m2/s"}]}
